The source of these data is ChEMBL document CHEMBL1128970, “Synthesis and characterization of the second cysteine-rich region of mouse skin PKCGh” (Bioorg Med Chem Lett, 1996).

One may read the Ki as a measure of affinity in units of concentration, obtained from inhibition or displacement. The low end stands for tighter binding, the high end for weaker binding.

The target of assay [1] is T1, Protein kinase C eta type (Mus musculus, UniProt P23298). Kind of assay: Inhibition of [3H]- PDBu binding to peptide D of mouse skin Protein kinase C eta.
T1 sequence (P23298 whole entry): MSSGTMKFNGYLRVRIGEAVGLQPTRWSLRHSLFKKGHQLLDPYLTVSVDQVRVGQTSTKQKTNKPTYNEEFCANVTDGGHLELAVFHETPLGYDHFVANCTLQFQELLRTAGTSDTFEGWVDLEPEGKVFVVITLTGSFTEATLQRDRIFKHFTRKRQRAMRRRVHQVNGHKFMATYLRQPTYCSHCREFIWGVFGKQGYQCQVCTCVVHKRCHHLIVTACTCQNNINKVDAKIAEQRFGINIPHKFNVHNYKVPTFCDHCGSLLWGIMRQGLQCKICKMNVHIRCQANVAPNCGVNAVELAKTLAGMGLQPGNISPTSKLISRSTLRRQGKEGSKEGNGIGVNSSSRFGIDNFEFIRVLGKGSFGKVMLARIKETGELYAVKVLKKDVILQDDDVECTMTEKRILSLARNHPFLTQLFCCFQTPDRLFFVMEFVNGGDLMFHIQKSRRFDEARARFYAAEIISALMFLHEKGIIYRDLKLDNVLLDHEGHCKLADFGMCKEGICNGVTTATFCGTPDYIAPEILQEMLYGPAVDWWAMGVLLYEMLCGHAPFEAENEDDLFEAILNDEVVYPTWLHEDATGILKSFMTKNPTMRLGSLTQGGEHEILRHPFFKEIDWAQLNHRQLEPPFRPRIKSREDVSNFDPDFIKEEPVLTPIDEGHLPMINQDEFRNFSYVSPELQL
Assay [2] has as its target T1, Protein kinase C eta type. Kind of assay: Inhibition of [3H]- PDBu binding to peptide D of mouse skin Protein kinase C eta (inactive).
Assay [3] addresses T2, Protein kinase C gamma type (Rattus norvegicus, UniProt P63319). Put plainly: Inhibition of [3H]- PDBu binding to peptide C, rat brain PKC gamma (inactive).
Assay [4] deals with T2, Protein kinase C gamma type. Kind of assay: Inhibition of [3H]- PDBu binding to peptide C, rat brain PKC gamma.

The compound `CCCCCCCC(=O)OCC(CO)OC(=O)CCCCCCC` (configuration not stated) [MONOCTANOIN COMPONENT C] had a Ki in assay [1] of 14.5 nM.
Regarding `CCCCCCCCCC(=O)O[C@@H]1[C@@H](C)[C@@]2(O)[C@@H](C=C(CO)C[C@@]3(O)C(=O)C(C)=C[C@@H]23)[C@@H]2C(C)(C)[C@]12OC(=O)CCCCCCCCC`, the Ki entry in assay [2] and in assay [3] was “Not Active” throughout.
In the case of `CCCC(=O)O[C@@H]1[C@@H](C)[C@@]2(O)[C@@H](C=C(CO)C[C@]3(O)C(=O)C(C)=C[C@@H]23)[C@@H]2C(C)(C)[C@]12OC(=O)CCC`, the inhibitory constant (Ki) in assay [4] is 52.9 nM; in assay [1] it was 0.6 nM.
For the compound `C=C[C@@]1(C)CC[C@](C)(C(C)C)c2cc3c4c(c[nH]c4c21)C[C@@H](CO)NC(=O)[C@H](C(C)C)N3C`, the Ki was found to be 2 nM in assay [4] and 0.1 nM in assay [1].
